In patent US20060069132A1, “Azolecarboxamide herbicides” (priority 2004, published 2006):

How the values were obtained:
[1] = tested on: barnyardgrass; test: Test A pre-/postemergence herbicide test; assay type: in vivo, Echinochloa crus-galli
Procedure, shortened: (§1)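 Seeds sown in sandy loam received a preemergence directed soil spray of compound in non-phytotoxic solvent with surfactant; postemergence plants (2–10 cm, one- to two-leaf stage) were sprayed to runoff at the same time. After ~10 days in greenhouse, injury was rated visually versus untreated controls (0 = no effect, 100 = complete control).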

[2] = tested on: large crabgrass; test: Test A pre-/postemergence herbicide test; assay type: in vivo, Digitaria sanguinalis
Procedure, shortened: as §1

[3] = tested on: giant foxtail; test: Test A pre-/postemergence herbicide test; assay type: in vivo, Setaria faberi
Procedure, shortened: as §1

[4] = tested on: morningglory; test: Test A pre-/postemergence herbicide test; assay type: in vivo, Ipomoea spp.
Procedure, shortened: as §1

[5] = tested on: redroot pigweed; test: Test A pre-/postemergence herbicide test; assay type: in vivo, Amaranthus retroflexus
Procedure, shortened: as §1

[6] = tested on: velvetleaf; test: Test A pre-/postemergence herbicide test; assay type: in vivo, Abutilon theophrasti
Procedure, shortened: as §1

[7] = tested on: barnyardgrass; test: Test B pre-/postemergence herbicide test; assay type: in vivo, Echinochloa crus-galli; details: for Barnyardgrass plant response rating: postemergence, visual rating, scale 0 (no effect) to 100 (complete control)
Procedure, shortened: (§2)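 Seeds were planted and treated preemergence with compounds formulated in a non-phytotoxic solvent mixture containing surfactant, while plants at the 1- to 4-leaf stage (2 to 18 cm) received postemergence sprays. Flooded paddy plants were grown to the 2-leaf stage. After 13 to 15 days in a greenhouse, injury was visually rated 0–100 against untreated controls.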

[8] = tested on: Surinam grass; test: Test B pre-/postemergence herbicide test; assay type: in vivo, Urochloa decumbens; details: for Surinam Grass plant response rating: postemergence, visual rating, scale 0 (no effect) to 100 (complete control)
Procedure, shortened: as §2

[9] = tested on: cocklebur; test: Test B pre-/postemergence herbicide test; assay type: in vivo, Xanthium strumarium; details: for Cocklebur plant response rating: postemergence, visual rating, scale 0 (no effect) to 100 (complete control)
Procedure, shortened: as §2

[10] = tested on: corn; test: Test B pre-/postemergence herbicide test; assay type: in vivo, Zea mays; details: for Corn plant response rating: postemergence, visual rating, scale 0 (no effect) to 100 (complete control)
Procedure, shortened: as §2

[11] = tested on: large crabgrass; test: Test B pre-/postemergence herbicide test; assay type: in vivo, Digitaria sanguinalis; details: for Crabgrass, Large plant response rating: postemergence, visual rating, scale 0 (no effect) to 100 (complete control)
Procedure, shortened: as §2

[12] = tested on: giant foxtail; test: Test B pre-/postemergence herbicide test; assay type: in vivo, Setaria faberi; details: for Foxtail, Giant plant response rating: postemergence, visual rating, scale 0 (no effect) to 100 (complete control)
Procedure, shortened: as §2

[13] = tested on: lambsquarters; test: Test B pre-/postemergence herbicide test; assay type: in vivo, Chenopodium album; details: for Lambsquarters plant response rating: postemergence, visual rating, scale 0 (no effect) to 100 (complete control)
Procedure, shortened: as §2

[14] = tested on: morningglory; test: Test B pre-/postemergence herbicide test; assay type: in vivo, Ipomoea coccinea; details: for Morningglory plant response rating: postemergence, visual rating, scale 0 (no effect) to 100 (complete control)
Procedure, shortened: as §2

[15] = tested on: pigweed; test: Test B pre-/postemergence herbicide test; assay type: in vivo, Amaranthus retroflexus; details: for Pigweed plant response rating: postemergence, visual rating, scale 0 (no effect) to 100 (complete control)
Procedure, shortened: as §2

[16] = tested on: rice; test: Test B pre-/postemergence herbicide test; assay type: in vivo, Oryza sativa; details: preemergence
Procedure, shortened: as §2

[17] = tested on: velvetleaf; test: Test B pre-/postemergence herbicide test; assay type: in vivo, Abutilon theophrasti; details: for Velvetleaf plant response rating: postemergence, visual rating, scale 0 (no effect) to 100 (complete control)
Procedure, shortened: as §2

[18] = tested on: blackgrass; test: Test B postemergence herbicide test; assay type: in vivo, Alopecurus myosuroides; details: postemergence, visual rating, scale 0 (no effect) to 100 (complete control)
Procedure, shortened: (§3)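 Postemergence plants were sprayed with formulated test chemicals at 2 to 18 cm height (1- to 4-leaf stage); paddy species were grown to the 2-leaf stage. After 13 to 15 days in a greenhouse, injury was rated visually against untreated controls on a 0–100 scale (0 = no effect, 100 = complete control).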

[19] = tested on: wheat; test: Test B postemergence herbicide test; assay type: in vivo, Triticum aestivum; parameters: key to Wheat plant response rating: 0 = no effect, 100 = complete control; details: postemergence, visual rating, scale 0 (no effect) to 100 (complete control)
Procedure, shortened: (§4)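 Read-out: visual comparison with controls, scored 0 to 100, where 100 means complete control and 0 no effect. Formulated chemicals were applied postemergence to plants 2–18 cm tall (1- to 4-leaf), or to flooded-paddy plants at the 2-leaf stage, then held 13 to 15 days under glass.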

[20] = tested on: wild oat; test: Test B postemergence herbicide test; assay type: in vivo, Avena fatua; details: postemergence, visual rating, scale 0 (no effect) to 100 (complete control)
Procedure, shortened: as §4

[21] = tested on: rice; test: Test B flooded paddy test; assay type: in vivo, Oryza sativa; details: 1000 g ai/ha, visual rating, scale 0 to 100 (0 no effect, 100 complete control), 13 to 15 days
Procedure, shortened: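 Visual ratings, 0 (no effect) to 100 (complete control), made versus controls after 13–15 d greenhouse. Paddy plants treated at 2-leaf stage; postemergence plants at 1- to 4-leaf stage, 2–18 cm tall.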

[22] = tested on: small flower umbrella sedge; test: Test B flooded paddy test; assay type: in vivo, Cyperus difformis; details: 1000 g ai/ha, visual rating, scale 0 to 100 (0 no effect, 100 complete control), 13 to 15 days
Procedure, shortened: as §3

[23] = tested on: ducksalad; test: Test B flooded paddy test; assay type: in vivo, Heteranthera limosa; details: 1000 g ai/ha, visual rating, scale 0 to 100 (0 no effect, 100 complete control), 13 to 15 days
Procedure, shortened: as §3

[24] = tested on: barnyardgrass; test: Test B flooded paddy test; assay type: in vivo, Echinochloa crus-galli; details: 1000 g ai/ha, visual rating, scale 0 to 100 (0 no effect, 100 complete control), 13 to 15 days
Procedure, shortened: as §3

[25] = Postemergence, 500 g ai/ha, 0 to 100 scale, 0 no effect, 100 complete control
[26] = Postemergence, 2000 g ai/ha, 0 to 100 scale, 0 no effect, 100 complete control
[27] = Preemergence, 2000 g ai/ha, visual rating, 0 to 100 scale (0 no effect, 100 complete control)
[28] = preemergence, 500 g ai/ha, visual injury, 0 to 100 scale (0 no effect, 100 complete control)
[29] = 125 g ai/ha, 0 = no effect, 100 = complete control, preemergence
[30] = 500 g ai/ha, visual rating 0-100, 0 no effect, 100 complete control, preemergence

CCOc1cccc(NC(=O)c2cn(C(C)(C)C)nc2C)c1 [Compound 190]
Barnyardgrass plant response rating [1, 25]: 0 | Plant response rating, Barnyardgrass [1, 26]: 0 | Barnyardgrass plant response rating [1, 27]: 40 | Barnyardgrass plant response rating [1, 28]: 20 | Crabgrass, Large plant response rating [2, 25]: 10 | Plant response rating, Crabgrass, Large [2, 26]: 15 | Crabgrass, Large plant response rating [2, 27]: 70 | Crabgrass, Large plant response rating [2, 28]: 40 | Foxtail, Giant plant response rating [3, 25]: 0 | Plant response rating, Foxtail, Giant [3, 26]: 0 | Foxtail, Giant plant response rating [3, 27]: 10 | Foxtail, Giant plant response rating [3, 28]: 0 | Morningglory plant response rating [4, 25]: 10 | Plant response rating, Morningglory [4, 26]: 25 | Morningglory plant response rating [4, 27]: 25 | Morningglory plant response rating [4, 28]: 10 | Pigweed plant response rating [5, 25]: 10 | Plant response rating, Pigweed [5, 26]: 20 | Pigweed plant response rating [5, 27]: 85 | Pigweed plant response rating [5, 28]: 25 | Velvetleaf plant response rating [6, 25]: 0 | Plant response rating, Velvetleaf [6, 26]: 15 | Velvetleaf plant response rating [6, 27]: 15 | Velvetleaf plant response rating [6, 28]: 0 | Barnyardgrass plant response rating (0 to 100 scale) [7, 29]: 0 | Plant response rating, Barnyardgrass [7, 30]: 30 | Barnyardgrass plant response rating ([7]; 125 g ai/ha): 0 | Barnyardgrass plant response rating ([7]; 500 g ai/ha): 10 | Surinam Grass plant response rating (0 to 100 scale) [8, 29]: 0 | Plant response rating, Surinam Grass [8, 30]: 10 | Surinam Grass plant response rating ([8]; 125 g ai/ha): 10 | Surinam Grass plant response rating ([8]; 500 g ai/ha): 20 | Cocklebur plant response rating (0 to 100 scale) [9, 29]: 0 | Plant response rating, Cocklebur [9, 30]: 0 | Cocklebur plant response rating ([9]; 125 g ai/ha): 0 | Cocklebur plant response rating ([9]; 500 g ai/ha): 10 | Corn plant response rating (0 to 100 scale) [10, 29]: 0 | Plant response rating, Corn [10, 30]: 0 | Corn plant response rating ([10]; 125 g ai/ha): 10 | Corn plant response rating ([10]; 500 g ai/ha): 10 | Crabgrass, Large plant response rating (0 to 100 scale) [11, 29]: 30 | Plant response rating, Crabgrass, Large [11, 30]: 80 | Crabgrass, Large plant response rating ([11]; 125 g ai/ha): 10 | Crabgrass, Large plant response rating ([11]; 500 g ai/ha): 20 | Foxtail, Giant plant response rating (0 to 100 scale) [12, 29]: 0 | Plant response rating, Foxtail, Giant [12, 30]: 10 | Foxtail, Giant plant response rating ([12]; 125 g ai/ha): 10 | Foxtail, Giant plant response rating ([12]; 500 g ai/ha): 10 | Lambsquarters plant response rating (0 to 100 scale) [13, 29]: 0 | Plant response rating, Lambsquarters [13, 30]: 50 | Lambsquarters plant response rating ([13]; 125 g ai/ha): 30 | Lambsquarters plant response rating ([13]; 500 g ai/ha): 80 | Morningglory plant response rating (0 to 100 scale) [14, 29]: 0 | Plant response rating, Morningglory [14, 30]: 0 | Morningglory plant response rating ([14]; 125 g ai/ha): 50 | Morningglory plant response rating ([14]; 500 g ai/ha): 90 | Pigweed plant response rating (0 to 100 scale) [15, 29]: 30 | Plant response rating, Pigweed [15, 30]: 90 | Pigweed plant response rating ([15]; 125 g ai/ha): 30 | Pigweed plant response rating ([15]; 500 g ai/ha): 70 | Rice plant response rating (0 to 100 scale) ([16]; 125 g ai/ha, 0 = no effect, 100 = complete control): 0 | Plant response rating, Rice ([16]; 500 g ai/ha, visual rating 0-100, 0 no effect, 100 complete control): 30 | Velvetleaf plant response rating (0 to 100 scale) [17, 29]: 0 | Plant response rating, Velvetleaf [17, 30]: 10 | Velvetleaf plant response rating ([17]; 125 g ai/ha): 20 | Velvetleaf plant response rating ([17]; 500 g ai/ha): 40 | Blackgrass plant response rating ([18]; 125 g ai/ha): 0 | Blackgrass plant response rating ([18]; 500 g ai/ha): 0 | Wheat plant response rating ([19]; 125 g ai/ha): 0 | Wheat plant response rating ([19]; 500 g ai/ha): 0 | Oat, Wild plant response rating ([20]; 125 g ai/ha): 10 | Oat, Wild plant response rating ([20]; 500 g ai/ha): 20 | Rice plant response rating [21]: 0 | Sedge, Umbrella plant response rating [22]: 60 | Ducksalad plant response rating [23]: 60 | Barnyardgrass plant response rating [24]: 20
